Reference: patent US20250127723A1, “PHARMACEUTICAL COMPOSITION COMPRISING LARGE PHYSIOLOGICALLY ACTIVE SUBSTANCE AND EXCIPIENT” (priority 2021, published 2025)
Structures can show the parent of a compound that is named as a salt. Bridge positions count the residues as written; N and C are the ends. Square brackets hold non-standard residues; d marks the D form. Side chains are listed from the residue outwards. Ends that are not written are not given here. Lys‑B1 = not defined here; EG2 = not defined here; Aib = CC(C)(N)C(=O)O

Key:
[1] = Body weight change 24 hours after single oral administration of amylin derivatives; assay type: in vivo; conditions: mice, bile acid absorption accelerator formulation
Procedure: After a single oral administration of a formulation using a combination of a large physiologically active substance and excipients to mice, body weight changes were confirmed for 24 hours.

Caco-2 cell monolayer [2] = assay type: in vitro ADME
Procedure: First, to form a Caco-2 cell monolayer, 1.5×10^5 cells per well were dispensed in a 12-Transwell plate and this was cultured for 3 to 4 weeks under 37° C. CO2 conditions. For the first week, the culture medium was changed once every two days, and thereafter, the culture medium was changed every three days. In the experiment, samples between 3 and 4 weeks after seeding were used. To verify the formation of a cell monolayer, TEER values and Lucifer yellow values were measured; only cell monolayer membranes having a TEER value of 300 Ω·cm^2 or more and a measured transmittance of Lucifer yellow within 3% were used in the test. After washing the Transwell to be used for each test using transport media (HBSS), incubation was performed for 1 hour in a 37° C. CO2 incubator; then, 500 μL each of large physiologically active substance (50 μM) and bile acid derivatives (100 μM) were added to the apical side, and 1.5 mL of drug-free transport media was treated onto the basolateral side. Subsequently, incubation was performed for 2 hours in a 37° C. CO2 incubator.
[formula] • (*dCr-concentration of the permeated sample, dt-drug treatment time, Vr-basolateral volume, A-Transwell area, C0-initial applied drug concentration)

Caco-2 cells = tested on: Caco-2 cells
Procedure: The cytotoxicity of excipients was evaluated using Caco-2 cells using the following method. First, to check the amount of intracellular accumulation, Caco-2 cells were distributed in a 96-well plate at 1×10^5 per well and cultured in a CO2 incubator at a temperature of 37° C. The culture solution from each well is removed and replacement by a new culture medium is performed. After that, […] of the prepared excipient was added and this was cultured in a CO2 incubator at 37° C. After 2 hours, each well was treated with 100 µL of luciferase reagent (Promega, #G7571) and incubated at room temperature. After 10 minutes, the luminescence value of each well was measured. […] [formula]

Caco-2 cell monolayer [3] = assay type: in vitro ADME; remark: listed apart in the source
Procedure: Using the Caco-2 cell monolayer, changes in the permeability of markers for each permeation pathway due to excipients were evaluated using the following method. First, to form a Caco-2 cell monolayer, 1.5×10^5 cells per well were dispensed in a 12-Transwell plate and cultured for 3 to 4 weeks under 37° C. CO2 conditions. For the first week, the culture medium was changed once every two days, and thereafter, the culture medium was changed every three days. In the experiment, samples between 3 and 4 weeks after seeding were used. To verify the formation of a cell monolayer, TEER values and Lucifer yellow values were measured, and only cell monolayer membranes having a TEER value of 300 Ω·cm^2 or more and a measured transmittance of Lucifer yellow within 3% were used in the test. After the Transwells to be used for each test were washed using transport media (HBSS) and incubated in a 37° C. CO2 incubator for 1 hour, 500 μL of bile acid derivatives and permeability marker were added to the apical side, and 1.5 mL of drug-free transport media was treated onto the basolateral side, and incubation was performed for 2 hours in a 37° C. CO2 incubator thereafter. At this time, fluorescein isothiocyanate-dextran (FD4) was used as a paracellular marker, and metoprolol was used as a transcellular marker to confirm the change in permeability coefficient according to bile acid derivative treatment. […]

[4] = Cmax after duodenal administration of Compounds 23 and 24; design: species or system experimental rats; conditions: rat, in vivo; rats, duodenum; CDC 68 mg/kg, PG 34 mg/kg; Compound 23 5.4 mg/kg, Compound 24 6.2 mg/kg
Procedure: A large physiologically active substance (Compound 24) was formulated by dissolving it in the corresponding vehicle (0.02% polysorbate 80 in 10 mM PBS (pH 7.4)) with the excipient composition shown in Table 6 above. After administering the above formulation to the duodenum of experimental rats, Cmax was compared. The corresponding results were compared with the results obtained by administering Compound 23, a large physiologically active substance without a biotin moiety, in the same formulation, and are shown in Table 7 below.

[5] = tested on: monolayer membrane of Caco-2 cells; assay: Tight junction openness by change in TEER value, Caco-2 monolayer; assay type: cell-based; conditions: apical treatment, 0-120 min, FIG. 2
Procedure: First, to form a Caco-2 cell monolayer, 1.5×10^5 cells per well was dispensed in a 12-Transwell plate and cultured for 3 to 4 weeks under 37° C. CO2 conditions. For the first week, the culture medium was changed once every two days, and thereafter, the culture medium was changed every three days. In the experiment, samples between 3 and 4 weeks after seeding were used. To evaluate the degree of damage to the Caco-2 cell monolayer by excipients, the degree of cells cultured as a monolayer on a semi-permeable membrane was measured by the difference in electrical resistance between the apical side and the basolateral side. First, the Transwell to be used in each test is washed using a washing buffer (HBSS), replaced by culture medium, and equilibrated in a 37° C. CO2 incubator for 15 minutes. After adding 500 μL of the prepared excipient to the apical side and treating the basolateral side with 1.5 mL of culture medium containing no excipient, changes in TEER values were measured using a Millicell ERS-2 Voltohmmeter at each time point (0, 5, 15, 30, 45, 60, 90, 120 min) from the time of treatment.

[6] = Weight loss, appetite suppression and anti-diabetic efficacy, oral Compound 17 formulation in obese mice; assay type: in vivo, mice (C57BL/6); conditions: high-fat diet obese C57BL/6 mice; Compound 17 300 to 1000 nmol/kg oral daily 3 weeks; CDC 6.8, UDC 13.6, PG 13.6 mg/mL; FIGS. 11 to 13
Procedure: After oral administration of a formulation containing a large physiologically active substance (Compound 17) and excipients to mice, changes in mouse body weight and anti-diabetic efficacy were confirmed. Specifically, the administered dose of Compound 17 used 300 to 1000 nmol/kg, and the excipient concentrations in the administered formulation used CDC 6.8 mg/mL, UDC 13.6 mg/mL, and PG 13.6 mg/mL. The vehicle used 0.02% polysorbate 80 in 10 mM PBS (pH 7.4). Obese mice were induced by feeding high-fat diet to 6-week-old male mice (C57BL/6) for 16 weeks; then weight changes were confirmed by oral administration of the GLP-1/Glucagon receptor dual agonist (Compound 17), which combines biotin and fatty acid moieties, every day for 3 weeks using a bile acid absorption accelerator formulation.

Which “body weight change after 24 hours” value [1] does the source give for “26: Amylin, SEQ No. 14: KCNTATCATQRLANFLVHSSNNFGPILPPTNVGSNTY; K1: Lys-B1 (K*) ([Lys‑B1]CNTATCATQRLANFLVHSSNNFGPILPPTNVGSNTY; ends and bridges not checked) [Compound 26]” here?
Its value is “weight loss was confirmed”.

Which “body weight change after 24 hours” value [1] does the source give for “27: Amylin, SEQ No. 14: KCNTATCATQRLANFLVHSSNNFGPILPPTNVGSNTY; K1: αLys-EG2-Glu-C18 (*K); K1: Lys-B1 (K*) ({C18-Glu-EG2}-[Lys‑B1]CNTATCATQRLANFLVHSSNNFGPILPPTNVGSNTY; not fully specified; ends and bridges not checked) [Compound 27]” here?
Its value is “weight loss was confirmed”.

With “29: Amylin, SEQ No. 15: KCNTATCATQRLADFLRHSSPNFGAIPSSTNVGSRTY; K1: Lys-B1 (K*) ([Lys‑B1]CNTATCATQRLADFLRHSSPNFGAIPSSTNVGSRTY; ends and bridges not checked) [Compound 29]” as the molecule, how does the “body weight change after 24 hours” value [1] read?
The value was “weight loss was confirmed”.

Which “body weight change after 24 hours” value [1] does the source give for “30: Amylin, SEQ No. 15: KCNTATCATQRLADFLRHSSPNFGAIPSSTNVGSRTY; K1: αLys-EG2-Glu-C18 (*K); K1: Lys-B1 (K*) ({C18-Glu-EG2}-[Lys‑B1]CNTATCATQRLADFLRHSSPNFGAIPSSTNVGSRTY; not fully specified; ends and bridges not checked) [Compound 30]” here?
Its value is “weight loss was confirmed”.

For “32: Amylin, SEQ No. 16: KCNTATCATQRLADFLRHSSNNFGAIPSSTNVGSRTY; K1: Lys-B1 (K*) ([Lys‑B1]CNTATCATQRLADFLRHSSNNFGAIPSSTNVGSRTY; ends and bridges not checked) [Compound 32]”, which “body weight change after 24 hours” value [1] is on record?
The value was “weight loss was confirmed”.

Which “body weight change after 24 hours” value [1] does the source give for “33: Amylin, SEQ No. 16: KCNTATCATQRLADFLRHSSNNFGAIPSSTNVGSRTY; K1: αLys-EG2-Glu-C18 (*K); K1: Lys-B1 (K*) ({C18-Glu-EG2}-[Lys‑B1]CNTATCATQRLADFLRHSSNNFGAIPSSTNVGSRTY; not fully specified; ends and bridges not checked) [Compound 33]” here?
Its value is “weight loss was confirmed”.

For “35: Amylin, SEQ No. 17: RCNTATCATQRLADFLRHSSNNFGAIPSSTNVGSKTY; K35: Lys-B1 (K*) (RCNTATCATQRLADFLRHSSNNFGAIPSSTNVGS[Lys‑B1]TY; ends and bridges not checked) [Compound 35]”, which “body weight change after 24 hours” value [1] is on record?
The value was “weight loss was confirmed”.

With “36: Amylin, SEQ No. 17: RCNTATCATQRLADFLRHSSNNFGAIPSSTNVGSKTY; R1: αArg-EG2-Glu-C18 (*R); K35: Lys-B1 (K*) ({C18-Glu-EG2}-RCNTATCATQRLADFLRHSSNNFGAIPSSTNVGSKTY; not fully specified (some residues); ends and bridges not checked) [Compound 36]” as the molecule, how does the “body weight change after 24 hours” value [1] read?
Its value is “weight loss was confirmed”.

For `C[C@H](CCC(=O)O)[C@H]1CC[C@H]2[C@@H]3[C@H](O)C[C@@H]4C[C@H](O)CC[C@]4(C)[C@H]3CC[C@]12C` [CDC, Chenodeoxycholic acid or its salt], which “effect of improving the permeability of large physiologically active substances” value (Caco-2 cell monolayer [2]) is on record?
Its value is “had an effect of improving the permeability”.

What about the “cytotoxicity (cell viability)” value (Caco-2 cells) of the same molecule?
The value was “similar”.

What about the “effect on paracellular (FD4) and transcellular (metoprolol) transport” value (Caco-2 cell monolayer [3]) of the same molecule?
The value was “promotes both paracellular transport and transcellular transport”.

Which Cmax [4] does the source give for `CC[C@H](C)[C@H](NC(=O)[C@H](CCC(=O)O)NC(=O)[C@H](CO)NC(=O)[C@@H](NC(=O)[C@@H](N)CO)C(C)C)C(=O)N[C@@H](CCC(N)=O)C(=O)N[C@@H](CC(C)C)C(=O)N[C@@H](CCSC)C(=O)N[C@@H](Cc1cnc[nH]1)C(=O)N[C@@H](CC(N)=O)C(=O)N[C@@H](CC(C)C)C(=O)NCC(=O)N[C@@H](CCCCN)C(=O)N[C@@H](Cc1cnc[nH]1)C(=O)N[C@@H](CC(C)C)C(=O)N[C@@H](CC(N)=O)C(=O)N[C@@H](CO)C(=O)N[C@@H](CCSC)C(=O)N[C@@H](CCC(=O)O)C(=O)N[C@@H](CCCN=C(N)N)C(=O)N[C@H](C(=O)N[C@@H](CCC(=O)O)C(=O)N[C@@H](Cc1c[nH]c2ccccc12)C(=O)N[C@@H](CC(C)C)C(=O)N[C@@H](CCCN=C(N)N)C(=O)N[C@@H](CCCCN)C(=O)N[C@@H](CCCCN)C(=O)N[C@@H](CC(C)C)C(=O)N[C@@H](CCC(N)=O)C(=O)N[C@@H](CC(=O)O)C(=O)N[C@H](C(=O)N[C@@H](Cc1cnc[nH]1)C(=O)N[C@@H](CC(N)=O)C(=O)N[C@@H](Cc1ccccc1)C(=O)O)C(C)C)C(C)C` [Compound 23] here?
Its Cmax is 30 ng/mL.

Which “cytotoxicity (cell viability)” value (Caco-2 cells) does the source give for `C[C@H](CCC(=O)O)[C@H]1CC[C@H]2[C@@H]3CC[C@@H]4C[C@H](O)CC[C@]4(C)[C@H]3C[C@H](O)[C@]12C` [DC, Deoxycholic acid or its salt] here?
The value was “similar”.

Which “tight junction openness according to the change in TEER value” [5] does the source give for `CCCOC(=O)c1cc(O)c(O)c(O)c1` [PG, Propyl gallate] here?
Its value is “non-tight junction openness”.

For `C[C@H](CCC(=O)O)[C@H]1CC[C@H]2[C@@H]3[C@@H](O)C[C@@H]4C[C@H](O)CC[C@]4(C)[C@H]3CC[C@]12C` [UDC, Ursodeoxycholic acid or its salt], which “tight junction openness according to the change in TEER value” [5] is on record?
The value was “non-tight junction openness”.

And the “cytotoxicity (cell viability)” value (Caco-2 cells)?
Its value is “least cytotoxicity”.

What about the “effect on paracellular (FD4) and transcellular (metoprolol) transport” value (Caco-2 cell monolayer [3]) of the same molecule?
The value was “no enhancing effect on the two transport mechanisms”.

With “Compound 17: GLP-1/GCGRA, SEQ No. 8: H-Aib-QGTFTSDYSKYLDEQAAKEFVQWLMNTK; (Lactam) between E16 and K20; K12: Lys-B1 (K*); K30: Lys-EG2-Glu-C18 (K*) (H-H[Aib]QGTFTSDYSKYLDEQAAKEFVQWLMNTK([EG2-Glu-C18]); lactam 16-20; not fully specified (residue 12); reading uncertain)” as the molecule, how does the anti-diabetic efficacy [6] read?
Its anti-diabetic efficacy is “anti-diabetic effect”.

What about the body weight change [6] of the same molecule?
The body weight change was “weight loss”.

What about the feed intake [6] of the same molecule?
The feed intake was “reduction of feed intake”.
